Reference: US8003759B2, “Protein kinase-inducible domains” (University of Delaware, priority 2006, dated 2011)
Entries after “also recorded” stand apart in the source; their conditions may differ. Read-outs that look alike come from different tables or passages of the source.

How the values were obtained:
[1] = Tb^3+ binding of pKID peptides by fluorescence titration (dissociation constant determination); conditions: for Kd: 5 mM HEPES (pH 7.8), 100 mM NaCl, read-out: Kd of peptide-Tb^3+ complex
Procedure: Fluorescence spectra were collected on a Photon Technology International fluorescence spectrometer model QM-3/2003 with a CW source and a Hamamatsu R928PMT. All experiments were conducted with an excitation wavelength of 280 nm. 6 nm excitation and emission slit widths were used unless otherwise indicated. All spectra were acquired at room temperature, collecting data every 1 nm with a scan rate of 1 nm per second. At least 3 independent binding titrations were conducted for each peptide. All spectra are uncorrected and have not been normalized, and only representative (median), non-averaged spectra are shown, unless otherwise indicated. All fluorescence experiments were conducted using a 495 nm highpass filter (model 495FG03-25 AM-53074; Andover Corporation, Andover, N.H.) on the emission monochromator.
Peptide solutions were prepared by dilution of stock solutions into 5 mM HEPES buffer (pH 7.8) with 100 mM NaCl. Spectra were acquired in 10 mm quartz fluorescence cells (Sterna). Tb^3+ titrations were conducted by dilution of a Tb^3+ solution into a peptide solution as described above. Each individual emission spectrum represents an independently prepared solution of peptide and metal. The Tb^3+ emission band at 544 nm was used to evaluate metal binding.
To determine dissociation constants for Tb^3+-peptide complexes, titrations were conducted in solutions of 5 mM HEPES (pH 7.8) and 100 mM NaCl, with 10 nm emission and excitation slit widths. All fluorescence experiments were conducted using a 495 nm highpass filter (model 495FG03-25 AM-53074; Andover Corporation, Andover, N.H.) on the emission monochromator. All TbCl3 solutions were standardized by titration with a standard solution of EDTA (1 mM) in the presence of xylenol orange indicator (10 μM) and sodium acetate buffer (pH 6.0, 10 mM). 500 μL of the 1 mM Tb^3+ stock solution was diluted to 1 mL to make a 0.5 mM solution and EDTA (1 mM) was added (approximately 500 μL) until the end point was reached (see FIGS. 11-13). The solutions were prepared as serial dilutions of Tb^3+, from 3.3 μM to 450 μM Tb^3+, and the fluorescence emission scan of each solution was acquired. Data points at the emission maximum of 544 nm were plotted against Tb^3+ concentration to calculate the final Kd. Data points indicate the average of at least three independent titrations. Error bars indicate standard error. The data were fit to equation (1) using a non-linear least squares fitting algorithm (KaleidaGraph version 3.6, Synergy Software), where Q fluorescence, Qo=fluorescence of the apopeptide, Qc=fluorescence of peptide-metal complex, Mt=total metal concentration, Kd=dissociation constant and Pt=total peptide concentration (10 μM). Dissociation constants in the presence of 2 mM Mg^2+ or 100 μM Ca^2+ were measured for pKID-PKA peptides to study the effect of these metals on Tb^3+-peptide complex formation.
Dissociation constants of the non-phosphorylated peptides were calculated by defining the maximum fluorescence of the non-phosphorylated peptide-Tb^3+ complex as equal to the maximum fluorescence of the phosphorylated peptide-Tb^3+ complex: Qc (non-phosphorylated peptide)=Qc (phosphorylated peptide), with Qc=the calculated fluorescence of the fully bonded phosphopeptide-Tb^3+ complex. Although the assumption of similar maximum fluorescence intensities of the Tb^3+ complexes of the non-phosphorylated and phosphorylated peptides may not be valid, it provides a measure of relative Tb^3+ fluorescence of the phosphorylated and non-phosphorylated peptides.

Protein Kinase A (PKA) [2] = biological target: T1, Protein Kinase A (PKA) (Mus musculus, UniProt P05132); assay: Phosphorylation of pKID peptides by protein kinase A (HPLC, fluorescence, ESI-MS); assay type: biochemical; conditions: 200 μM peptide, 2.5 units PKA, 35° C., 12 hrs
T1 construct: purchased New England Biolabs
Procedure: Kinase specificity for protein kinase-inducible domain peptides was examined by incubation of protein kinase A with pKID-PKA, pKID-PKC and pKID-Erk. Experiments were conducted with 2.4 mM ATP (3 μL of freshly prepared 20 mM ATP), PKA buffer (3 μL of 10× buffer), and peptide (200 μM) with water in 25 μL final reaction volume. After incubation at 35° C. for 5 min, PKA enzyme solution (1 μL, 2.5 units) was added to start the reaction. After 12-14 hrs at 35° C., the reaction mixture was analyzed by fluorescence, HPLC and ESI-MS. The kinase reaction mixtures were analyzed by fluorescence by diluting the reaction mixture with 1 mL of a solution containing 5 mM HEPES buffer (pH 7.8), 100 mM NaCl, and 50 μM Tb^3+, and the resulting solution analyzed by fluorescence. Fluorescence experiments were conducted with 10 nm slit widths and a 495 nm highpass filter on the emission monochromator. Fluorescence data (FIG. 7) represent the average of four independent trials. Error bars indicate standard error.

[3] = system: endogenous kinase present within the HeLa extracts; assay: Phosphorylation of pKID-PKA in HeLa nuclear extract in the absence of added kinase; assay type: biochemical; conditions: no added kinase
Procedure: Phosphorylation of pKID-PKA in HeLa nuclear extract in the absence of added kinase was also examined. Reaction mixtures were prepared as described previously to a final volume of 25 μL, but protein kinase A was not added. After addition of ATP and incubation for the indicated times, the reaction mixtures (25 μL, 500 μM peptide) were diluted with 200 μL of a solution containing […] buffer (pH 7.8), 100 mM NaCl and 100 μM Tb^3+ and analyzed by fluorescence as described previously. pKID-PKA was phosphorylated by endogenous kinase present within the HeLa extracts to approximately 10% conversion as determined by fluorescence and HPLC (see FIG. 5, right).

Protein Kinase A (PKA) [4] = biological target: T1, Protein Kinase A (PKA); assay: Phosphorylation of pKID-PKA by protein kinase A in HeLa nuclear extract; assay type: biochemical; conditions: HeLa nuclear extract with added PKA, 3 h incubation
[5] = Ho^3+ competition experiment (reduction of Tb^3+ luminescence); assay type: binding; conditions: 10 μM phosphorylated peptide, 10 μM Tb^3+, increasing Ho^3+
Procedure: Competition experiments were used to confirm site-specific lanthanide binding and to address whether pKID peptides are a general phosphorylation-dependent lanthanide-binding motif. In order to determine whether Tb^3+ binding is site-specific, competition experiments were performed with Ho^3+. Ho^3+ solutions were prepared from hydrates of the chloride salts in ultrapure water. The phosphorylated pKID-PKC peptide was tested for Ho^3+ binding by addition of aliquots of Ho^3+ to a solution containing 10 μM phosphorylated pKID-PKC and 10 μM Tb^3+. pKID-Tb^3+-Ho^3+ solutions were allowed to equilibrate for 2 minutes. Fluorescence experiments were conducted using a 495 nm highpass filter (model 495FG03-25 AM-53074; Andover Corporation, Andover, N.H.) on the emission monochromator and 8 nm slit widths.

Substance | Kd ([1]; 10 μM peptide) [µM] | Kd ([1]; + 2 mM Mg^2+) [µM] | phosphorylation by PKA (result in words), determined by HPLC (Protein Kinase A (PKA) [2]) | also measured
Ac-DKNADGWIDAApSLK-NH2 (DKNADGWIDAASLK; HELM PEPTIDE1{[ac].D.K.N.A.D.G.W.I.D.A.A.[O=C([C@H](COP(=O)(O)O)N[*:1])[*:2]].L.K.[am]}$$$$V2.0; SMILES CC[C@H](C)[C@H](NC(=O)[C@H](Cc1c[nH]c2ccccc12)NC(=O)CNC(=O)[C@H](CC(=O)O)NC(=O)[C@H](C)NC(=O)[C@H](CC(N)=O)NC(=O)[C@H](CCCCN)NC(=O)[C@H](CC(=O)O)NC(C)=O)C(=O)N[C@@H](CC(=O)O)C(=O)N[C@@H](C)C(=O)N[C@@H](C)C(=O)N[C@@H](COP(=O)(O)O)C(=O)N[C@@H](CC(C)C)C(=O)N[C@@H](CCCCN)C(N)=O) [phosphorylated pKID-PKC] | 216 | – | – | –
DKNADGWIDRASLA [non-phosphorylated pKID-PKA, Ac-DKNADGWIDRASLA-NH2, EF hand domain with Glu12 replaced by serine and a protein kinase A recognition domain] | > 5000 | > 5000 | – | conversion to phosphorylated peptide by PKA, determined by HPLC (Protein Kinase A (PKA) [2]): > 95%; phosphorylation conversion determined by fluorescence and HPLC [3]: approximately 10%; phosphorylation conversion measured by HPLC (Protein Kinase A (PKA) [4]): 75%; Tb^3+ binding in the presence of Mg^2+ ([1]; 2 mM Mg^2+): not observed
DKNADGWIDAASLK [non-phosphorylated pKID-PKC, Ac-DKNADGWIDAASLK-NH2, EF hand domain with Glu12 replaced by serine and a protein kinase C recognition domain] | > 6000 | – | no evidence of phosphorylation; also recorded: not phosphorylated | Ho^3+ binding observed via Tb^3+ luminescence [5]: loss of Tb^3+ luminescence
Ac-DKNADGWIDRApSLA-NH2 (DKNADGWIDRASLA; HELM PEPTIDE1{[ac].D.K.N.A.D.G.W.I.D.R.A.[O=C([C@H](COP(=O)(O)O)N[*:1])[*:2]].L.A.[am]}$$$$V2.0; SMILES CC[C@H](C)[C@H](NC(=O)[C@H](Cc1c[nH]c2ccccc12)NC(=O)CNC(=O)[C@H](CC(=O)O)NC(=O)[C@H](C)NC(=O)[C@H](CC(N)=O)NC(=O)[C@H](CCCCN)NC(=O)[C@H](CC(=O)O)NC(C)=O)C(=O)N[C@@H](CC(=O)O)C(=O)N[C@@H](CCCNC(=N)N)C(=O)N[C@@H](C)C(=O)N[C@@H](COP(=O)(O)O)C(=O)N[C@@H](CC(C)C)C(=O)N[C@@H](C)C(N)=O) [phosphorylated pKID-PKA] | 220 | 174 | – | change of dissociation constant of phosphopeptide-Tb^3+ complex in the presence of Ca^2+ ([1]; 100 μM Ca^2+): did not significantly change; Kd ([1]; + 100 μM Ca^2+): 228 µM
Ac-DKNADGWIDAApSPA-NH2 (DKNADGWIDAASPA; HELM PEPTIDE1{[ac].D.K.N.A.D.G.W.I.D.A.A.[O=C([C@H](COP(=O)(O)O)N[*:1])[*:2]].P.A.[am]}$$$$V2.0; SMILES CC[C@H](C)[C@H](NC(=O)[C@H](Cc1c[nH]c2ccccc12)NC(=O)CNC(=O)[C@H](CC(=O)O)NC(=O)[C@H](C)NC(=O)[C@H](CC(N)=O)NC(=O)[C@H](CCCCN)NC(=O)[C@H](CC(=O)O)NC(C)=O)C(=O)N[C@@H](CC(=O)O)C(=O)N[C@@H](C)C(=O)N[C@@H](C)C(=O)N[C@@H](COP(=O)(O)O)C(=O)N1CCC[C@H]1C(=O)N[C@@H](C)C(N)=O) [phosphorylated pKID-Erk] | 124 | – | – | –
DKNADGWIDAASPA [non-phosphorylated pKID-Erk, Ac-DKNADGWIDAASPA-NH2, EF hand domain with Glu12 replaced by serine and an Erk recognition domain] | > 3000 | – | no evidence of phosphorylation; also recorded: not phosphorylated | –
